The text below walks through data of paper PMC10294627, “PhoPQ Regulates Quinolone and Cephalosporin Resistance Formation in Salmonella Enteritidis at the Transcriptional Level” (mBio, 2023).

Like-named read-outs stand apart in the source and are kept apart here.

One assay has as its target T1, His-tagged PhoQ (Salmonella enterica, UniProt P0DM80).
T1 construct: 6xHis-tagged PhoQ, no truncation stated, in membrane extracts of E. coli DH5alpha; anti-His read-out; dimeric histidine kinase
Kind of assay: Phos-tag gel autophosphorylation, membrane extract, anti-His blot. The class given is biochemical. The following applies: with ATP, in vitro.

The target of assay [1] is T2, PhoQ^SD (periplasmic sensor domain of PhoQ) (Salmonella enterica, UniProt P0DM80).
T2 construct: periplasmic sensor domain (residues 45-188 as aligned; exact construct borders in supplement), His-tagged, pET28a, E. coli BL21, Ni-NTA purified, dimer by native-PAGE
As to the kind of experiment: differential scanning calorimetry. The assay is classed as binding. The following applies: 20 μM protein, 100 μM ligand, 10 mM sodium phosphate pH 7.4; Tm of complex, apo Tm 52.29 °C.

Assay [2] has as its target T2, PhoQ^SD (periplasmic sensor domain of PhoQ). Kind of assay: microscale thermophoresis. The class given is binding. The source says:
microscale thermophoresis on PhoQ^SD (periplasmic sensor domain of PhoQ) | NAL, CAZ, or ofloxacin, we also obtained well-fitted curves

For assay [3], the target named is periplasmic sensor domain of PhoQ (PhoQ^SD), His-tagged, S. Enteritidis (Salmonella Enteritidis). As to the kind of experiment: native gel or EMSA; native-PAGE of PhoQ^SD expressed in E. coli BL21; data not shown. On the technique in general: In EMSA bound probe runs differently from free probe, usually more slowly.

On to `CO/N=C(\C(=O)N[C@@H]1C(=O)N2C(C(=O)[O-])=C(C[N+]3(C)CCCC3)CS[C@H]12)c1csc(N)n1` [cefepime], for which the “Phos-tag gel autophosphorylation, membrane extract, anti-His blot” value (shortened to “Phos-tag gel autophosphorylation”) on His-tagged PhoQ was “cephalosporins (ceftazidime, ceftriaxone, and cefepime) or ATP”. The term Kd denotes the equilibrium constant for the complex coming apart. Regarding `CC(C)(O/N=C(\C(=O)N[C@@H]1C(=O)N2C(C(=O)[O-])=C(C[n+]3ccccc3)CS[C@H]12)c1csc(N)n1)C(=O)O` [ceftazidime], the Tm in assay [1] turned out to be 50.54 °C. For the same compound, binding in assay [2] was put at a Kd of 25.6 ± 13.4 µM.

As to `CO/N=C(\C(=O)N[C@@H]1C(=O)N2C(C(=O)O)=C(CSc3nc(=O)c(=O)[nH]n3C)CS[C@H]12)c1csc(N)n1` [ceftriaxone], the “Phos-tag gel autophosphorylation” value at His-tagged PhoQ was “cephalosporins (ceftazidime, ceftriaxone, and cefepime) or ATP”. For the compound `O=C(O)c1cn(C2CC2)c2cc(N3CCNCC3)c(F)cc2c1=O` [ciprofloxacin], the “Phos-tag gel autophosphorylation” value on His-tagged PhoQ is “treated with quinolones (nalidixic acid, ciprofloxacin, and ofloxacin)”. For `CCn1cc(C(=O)O)c(=O)c2ccc(C)nc21` [nalidixic acid], the Tm in assay [1] worked out at 51.00 °C. For the same compound, the Kd in assay [2] was 24.7 ± 4.3 µM. Consider `CC1COc2c(N3CCN(C)CC3)c(F)cc3c(=O)c(C(=O)O)cn1c23` (stereo not drawn) [ofloxacin], for which the Kd in assay [2] (read-out: Kd) is 33.1 ± 28.3 µM.

As a reminder, the stoichiometry N is a count of units in the complex or per binding partner. Take “periplasmic sensor domain of PhoQ (PhoQ^SD), His-tagged, S. Enteritidis (domain or fragment)”: in assay [3], the stoichiometry N turned out to be 2.
